Test results reported in ChEMBL document CHEMBL1121945, “Nitrogen bridgehead compounds. 18. New antiallergic 4H-pyrido[1,2-a]pyrimidin-4-ones. 1” (J Med Chem, 1982).

system: Rattus norvegicus; assay: Inhibition of rat passive cutaneous anaphylaxis (PCA) reaction was determined after oral administration; type: functional; settings: not given

Row | Compound | ID50
1 | C[C@H]1CCC(=NNc2ccccc2)c2ncc(C(=O)O)c(=O)n21 (single isomer, unassigned; (+)) | 1 µM/kg
2 | C[C@H]1CCC(=NNc2ccccc2)c2ncc(C(=O)O)c(=O)n21 (single isomer, unassigned; (-)) | >100 µM/kg

same assay, conditions: Rattus norvegicus, po; read-out: ID50 (the source's name)

Row | Compound | ED50
3 | CC1CC/C(=N\Nc2ccccc2F)c2ncc(C(=O)O)c(=O)n21 (stereo not drawn) | > 1000 µmol/kg
4 | CC1CCn2c(ncc(C(=O)O)c2=O)/C1=N/Nc1ccccc1 (stereo not drawn) | > 320 µmol/kg
5 | CC1CC/C(=N\Nc2ccccc2)c2nccc(=O)n21 (stereo not drawn) | > 100 µmol/kg
6 | Cc1cccc(N/N=C2\CCC(C)n3c2ncc(C(=O)O)c3=O)c1 (stereo not drawn) | 72.5 µmol/kg
7 | CC1CC/C(=N\Nc2ccccc2C(F)(F)F)c2ncc(C(=O)O)c(=O)n21 (stereo not drawn) | > 1000 µmol/kg
8 | CC1CC/C(=N\Nc2ccc(O)cc2)c2ncc(C(=O)O)c(=O)n21 (stereo not drawn) | > 100 µmol/kg
9 | CC1CC/C(=N\Nc2cccc(C(=O)O)c2)c2nccc(=O)n21 (stereo not drawn) | > 100 µmol/kg
10 | CC1CC/C(=N\Nc2cccc(C(F)(F)F)c2)c2ncc(C(=O)O)c(=O)n21 (stereo not drawn) | > 1000 µmol/kg
11 | CCOc1ccccc1N/N=C1\CCC(C)n2c1ncc(C(=O)O)c2=O (stereo not drawn) | > 1000 µmol/kg
12 | CCOC(=O)c1cccc(N/N=C2\CCC(C)n3c2ncc(C(=O)O)c3=O)c1 (stereo not drawn) | > 100 µmol/kg
13 | CC(C)c1ccc(N/N=C2\CCC(C)n3c2ncc(C(=O)O)c3=O)cc1 (stereo not drawn) | > 100 µmol/kg
14 | CC1CC/C(=N\Nc2ccc(C3CC3)cc2)c2ncc(C(=O)O)c(=O)n21 (stereo not drawn) | 100 µmol/kg
15 | CC1CC/C(=N\Nc2ccc(C(F)(F)F)cc2)c2ncc(C(=O)O)c(=O)n21 (stereo not drawn) | > 1000 µmol/kg
16 | CC1CC/C(=N\Nc2ccccc2)c2ncc(C(N)=O)c(=O)n21 (stereo not drawn) | > 1000 µmol/kg
17 | COc1ccccc1N/N=C1\CCC(C)n2c1ncc(C(=O)O)c2=O (stereo not drawn) | > 1000 µmol/kg
18 | CCOc1ccc(N/N=C2\CCC(C)n3c2ncc(C(=O)O)c3=O)cc1 (stereo not drawn) | > 100 µmol/kg

Row | Compound | ED50
19 | CC1C/C(=N\Nc2ccccc2)c2ncc(C(=O)O)c(=O)n2C1 (stereo not drawn) | > 320 µmol/kg
20 | CC1CC/C(=N\Nc2cccc(Cl)c2)c2ncc(C(=O)O)c(=O)n21 (stereo not drawn) | > 100 µmol/kg
21 | CC1CCC(=NNc2ccccc2)c2ncc(C(=O)O)c(=O)n21 (stereo not drawn) | 1.2 µmol/kg
22 | CC(=O)c1ccccc1N/N=C1\CCC(C)n2c1ncc(C(=O)O)c2=O (stereo not drawn) | > 1000 µmol/kg
23 | CC1CC/C(=N\Nc2ccc(CC(=O)O)cc2)c2ncc(C(=O)O)c(=O)n21 (stereo not drawn) | > 100 µmol/kg
24 | CC1CC/C(=N\Nc2cccc(Br)c2)c2ncc(C(=O)O)c(=O)n21 (stereo not drawn) | > 320 µmol/kg
25 | Cc1ccc(N/N=C2\CCC(C)n3c2ncc(C(=O)O)c3=O)cc1 (stereo not drawn) | > 1000 µmol/kg
26 | CC1CC/C(=N\Nc2ccc(I)cc2)c2ncc(C(=O)O)c(=O)n21 (stereo not drawn) | > 1000 µmol/kg
27 | CC1CC/C(=N\Nc2ccc([N+](=O)[O-])cc2)c2ncc(C(=O)O)c(=O)n21 (stereo not drawn) | > 320 µmol/kg
28 | Cc1ccccc1N/N=C1\CCC(C)n2c1ncc(C(=O)O)c2=O (stereo not drawn) | > 1000 µmol/kg
29 | CC1CC/C(=N\Nc2ccc(C(=O)O)cc2)c2nccc(=O)n21 (stereo not drawn) | > 100 µmol/kg
30 | CC(=O)c1ccc(N/N=C2\CCC(C)n3c2ncc(C(=O)O)c3=O)cc1 (stereo not drawn) | > 100 µmol/kg
31 | CC(=O)c1cccc(N/N=C2\CCC(C)n3c2ncc(C(=O)O)c3=O)c1 (stereo not drawn) | > 1000 µmol/kg
32 | CC1CC/C(=N\Nc2ccc(Br)cc2)c2ncc(C(=O)O)c(=O)n21 (stereo not drawn) | > 100 µmol/kg
33 | CC1CC/C(=N\Nc2ccccc2Br)c2ncc(C(=O)O)c(=O)n21 (stereo not drawn) | > 320 µmol/kg
34 | CCOc1ccc(N/N=C2\CC[C@H](C)n3c2ncc(C(=O)O)c3=O)cc1 | > 100 µmol/kg

species: Rattus norvegicus; assay: Inhibition of histamine release from sensitized rat mast cells in vitro; type: functional; settings: Rattus norvegicus, Mast cell; read-out: EC50

Row | Compound | EC50
35 | CC1CC/C(=N\Nc2ccccc2F)c2ncc(C(=O)O)c(=O)n21 (stereo not drawn) | 1.2 µM
36 | CC1CCn2c(ncc(C(=O)O)c2=O)/C1=N/Nc1ccccc1 (stereo not drawn) | 5.4 µM
37 | Cc1cccc(N/N=C2\CCC(C)n3c2ncc(C(=O)O)c3=O)c1 (stereo not drawn) | 72.9 µM
38 | CC1CC/C(=N\Nc2ccc(O)cc2)c2ncc(C(=O)O)c(=O)n21 (stereo not drawn) | 1.3 µM
39 | CC(C)c1ccc(N/N=C2\CCC(C)n3c2ncc(C(=O)O)c3=O)cc1 (stereo not drawn) | 1.2 µM
40 | CC1CC/C(=N\Nc2ccc(C3CC3)cc2)c2ncc(C(=O)O)c(=O)n21 (stereo not drawn) | 1 µM
41 | CC1CC/C(=N\Nc2ccc(C(F)(F)F)cc2)c2ncc(C(=O)O)c(=O)n21 (stereo not drawn) | 0.28 µM
42 | CCOc1ccc(N/N=C2\CCC(C)n3c2ncc(C(=O)O)c3=O)cc1 (stereo not drawn) | 17.6 µM
43 | CC1C/C(=N\Nc2ccccc2)c2ncc(C(=O)O)c(=O)n2C1 (stereo not drawn) | 13 µM
44 | CC1CCC(=NNc2ccccc2)c2ncc(C(=O)O)c(=O)n21 (stereo not drawn) | 2.2 µM
45 | CC1CC/C(=N\Nc2ccc(CC(=O)O)cc2)c2ncc(C(=O)O)c(=O)n21 (stereo not drawn) | 3.4 µM
46 | CC1CC/C(=N\Nc2cccc(Br)c2)c2ncc(C(=O)O)c(=O)n21 (stereo not drawn) | 6.7 µM
47 | Cc1ccc(N/N=C2\CCC(C)n3c2ncc(C(=O)O)c3=O)cc1 (stereo not drawn) | 0.28 µM
48 | CC1CC/C(=N\Nc2ccc([N+](=O)[O-])cc2)c2ncc(C(=O)O)c(=O)n21 (stereo not drawn) | 8.9 µM
49 | CC(=O)c1ccc(N/N=C2\CCC(C)n3c2ncc(C(=O)O)c3=O)cc1 (stereo not drawn) | 8.1 µM
50 | CC1CC/C(=N\Nc2ccc(Br)cc2)c2ncc(C(=O)O)c(=O)n21 (stereo not drawn) | 2 µM
51 | CCOc1ccc(N/N=C2\CC[C@H](C)n3c2ncc(C(=O)O)c3=O)cc1 | 19.2 µM

same assay, conditions: mast cells

Row | Compound | EC50
52 | CC1CC/C(=N\Nc2cccc(C(=O)O)c2)c2nccc(=O)n21 (stereo not drawn) | 655 uM l-1
53 | CC1CC/C(=N\Nc2cccc(Cl)c2)c2ncc(C(=O)O)c(=O)n21 (stereo not drawn) | 311 uM l-1
54 | CC1CC/C(=N\Nc2ccc(C(=O)O)cc2)c2nccc(=O)n21 (stereo not drawn) | 450 uM l-1

same assay, conditions: mast cells; read-out: EC50

Row | Compound | EC50
55 | C[C@H]1CCC(=NNc2ccccc2)c2ncc(C(=O)O)c(=O)n21 (single isomer, unassigned; (+)) | 0.6 µM
56 | C[C@H]1CCC(=NNc2ccccc2)c2ncc(C(=O)O)c(=O)n21 (single isomer, unassigned; (-)) | 8 µM

system: Rattus norvegicus; assay: Inhibition of rat passive cutaneous anaphylaxis (PCA) reaction after intravenous administration; type: functional; settings: not given

Row | Compound | ID50
57 | C[C@H]1CCC(=NNc2ccccc2)c2ncc(C(=O)O)c(=O)n21 (single isomer, unassigned; (+)) | 0.3 µM/kg
58 | C[C@H]1CCC(=NNc2ccccc2)c2ncc(C(=O)O)c(=O)n21 (single isomer, unassigned; (-)) | 54.8 µM/kg

same assay, conditions: Rattus norvegicus, iv; read-out: ID50 (the source's name)

Row | Compound | ED50
59 | CC1CC/C(=N\Nc2ccccc2F)c2ncc(C(=O)O)c(=O)n21 (stereo not drawn) | 5 µmol/kg
60 | CC1CCn2c(ncc(C(=O)O)c2=O)/C1=N/Nc1ccccc1 (stereo not drawn) | 32 µmol/kg
61 | Cc1cccc(N/N=C2\CCC(C)n3c2ncc(C(=O)O)c3=O)c1 (stereo not drawn) | 0.4 µmol/kg
62 | CC1CC/C(=N\Nc2ccc(O)cc2)c2ncc(C(=O)O)c(=O)n21 (stereo not drawn) | 1.7 µmol/kg
63 | CC1CC/C(=N\Nc2cccc(C(=O)O)c2)c2nccc(=O)n21 (stereo not drawn) | > 100 µmol/kg
64 | CC(C)c1ccc(N/N=C2\CCC(C)n3c2ncc(C(=O)O)c3=O)cc1 (stereo not drawn) | 2.4 µmol/kg
65 | CC1CC/C(=N\Nc2ccc(C3CC3)cc2)c2ncc(C(=O)O)c(=O)n21 (stereo not drawn) | 41.1 µmol/kg
66 | CC1CC/C(=N\Nc2ccc(C(F)(F)F)cc2)c2ncc(C(=O)O)c(=O)n21 (stereo not drawn) | 38.6 µmol/kg
67 | CCOc1ccc(N/N=C2\CCC(C)n3c2ncc(C(=O)O)c3=O)cc1 (stereo not drawn) | 1.6 µmol/kg
68 | CC1C/C(=N\Nc2ccccc2)c2ncc(C(=O)O)c(=O)n2C1 (stereo not drawn) | 5.7 µmol/kg
69 | CC1CC/C(=N\Nc2cccc(Cl)c2)c2ncc(C(=O)O)c(=O)n21 (stereo not drawn) | 0.6 µmol/kg
70 | CC1CCC(=NNc2ccccc2)c2ncc(C(=O)O)c(=O)n21 (stereo not drawn) | 0.6 µmol/kg
71 | CC1CC/C(=N\Nc2ccc(CC(=O)O)cc2)c2ncc(C(=O)O)c(=O)n21 (stereo not drawn) | 60.9 µmol/kg
72 | CC1CC/C(=N\Nc2cccc(Br)c2)c2ncc(C(=O)O)c(=O)n21 (stereo not drawn) | 0.4 µmol/kg
73 | Cc1ccc(N/N=C2\CCC(C)n3c2ncc(C(=O)O)c3=O)cc1 (stereo not drawn) | 1.3 µmol/kg
74 | CC1CC/C(=N\Nc2ccc([N+](=O)[O-])cc2)c2ncc(C(=O)O)c(=O)n21 (stereo not drawn) | 0.8 µmol/kg
75 | CC1CC/C(=N\Nc2ccc(C(=O)O)cc2)c2nccc(=O)n21 (stereo not drawn) | > 100 µmol/kg
76 | CC(=O)c1ccc(N/N=C2\CCC(C)n3c2ncc(C(=O)O)c3=O)cc1 (stereo not drawn) | 9.5 µmol/kg
77 | CC1CC/C(=N\Nc2ccc(Br)cc2)c2ncc(C(=O)O)c(=O)n21 (stereo not drawn) | 0.8 µmol/kg
78 | CCOc1ccc(N/N=C2\CC[C@H](C)n3c2ncc(C(=O)O)c3=O)cc1 | 100 µmol/kg
